This note sets out measurements from ChEMBL document CHEMBL6134927, “Novel Pyrido[3,4-d]pyrimidin-4-one and Pyrimido[5,4-d]pyrimidin-4-one Derivatives as TREM2 Agonists for Treating Parkinson's Disease” (ACS Med Chem Lett, 2025).

The assay addresses T1, Triggering receptor expressed on myeloid cells 2 (Homo sapiens, UniProt Q9NZC2).
T1 sequence (Q9NZC2 whole entry): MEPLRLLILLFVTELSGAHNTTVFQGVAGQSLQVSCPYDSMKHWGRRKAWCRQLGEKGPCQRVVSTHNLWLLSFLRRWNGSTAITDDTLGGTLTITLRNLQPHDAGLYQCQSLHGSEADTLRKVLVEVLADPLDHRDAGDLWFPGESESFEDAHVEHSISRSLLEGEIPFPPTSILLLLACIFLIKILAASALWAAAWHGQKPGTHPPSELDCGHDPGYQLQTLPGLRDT
The assay can be described thus: Agonist activity at human TREM2 expressed in HEK cells co-expressing human DAP12 assessed as increase in Syk phosphorylation incubated for 30 mins by AlphaLISA assay. Type of assay: cell-based. Background: In Alpha technology, singlet oxygen from a donor bead excites a nearby acceptor bead.
Usually EC50 stands for the concentration giving half of the maximal effect. As for `Cc1cc(C2CN(c3nc(-c4ccc(Cl)cc4F)c4nc(C(F)F)n(C)c(=O)c4n3)CCO2)ccn1` (stereo unspecified), the EC50 was found to be 2 nM. For `COc1cc([C@H]2CN(c3nc(-c4ccc(Cl)cc4F)c4nc(C(F)(F)F)n(C)c(=O)c4n3)CCO2)ccn1`, the EC50 stood at 4 nM.

As to `C[C@H]1CN(c2nc(-c3ccc(Cl)cc3F)c3nc(C(F)(F)F)n(C)c(=O)c3n2)C[C@@H](c2cnn(C3CC3)c2)O1`, the EC50 amounted to 2 nM. `Cn1cc([C@H]2CN(c3nc(-c4ccc(Cl)cc4F)c4nc(C(F)F)n(C)c(=O)c4n3)CCO2)cn1`: the concentration for a half-maximal effect (EC50) is 5 nM. `Cc1cc([C@@H]2CN(c3nc(-c4ccc(Cl)cc4F)c4nc(C(F)F)n(C)c(=O)c4n3)CCO2)ccn1`: the EC50 was determined as 1 nM.

For the compound `Cc1cc([C@@H]2CN(c3cc4c(=O)n(C)c(C(F)F)nc4c(-c4ccc(Cl)cc4F)n3)CCO2)ccn1`, the concentration giving a half-maximal response (EC50) was determined as 3 nM.
